Results taken from ChEMBL document CHEMBL1649437, “Inhaled voriconazole for prevention of invasive pulmonary aspergillosis” (Antimicrob Agents Chemother, 2009).
Active and inactive are the calls of the source. The calls are words filed in the database; no cut-off is given here.

How the values were obtained:
Aspergillus fumigatus [1] = test: Antifungal activity against Aspergillus fumigatus isolate Af293 infected in immunosuppressed ICR mouse assessed as pulmonary fungal burden at 1 mg/kg, ip once daily administered 1 day post infection measured on day 8 by real-time quantitative PCR; format: functional; settings: route intraperitoneal
Aspergillus fumigatus [2] = test: Antifungal activity against Aspergillus fumigatus isolate Af293 infected in immunosuppressed ICR mouse assessed as conidial equivalents per gram of tissue at 1 mg/kg, ip once daily administered 1 day post infection measured on day 8 by real-time quantitative PCR; format: functional; settings: route intraperitoneal
Aspergillus fumigatus [3] = test: Antifungal activity against Aspergillus fumigatus isolate Af293 infected in immunosuppressed ICR mouse assessed as increased survival of mouse at 1 mg/kg, ip once daily until day 7; format: functional; settings: route intraperitoneal
Aspergillus fumigatus [4] = test: Antifungal activity against Aspergillus fumigatus isolate Af293 infected in immunosuppressed ICR mouse assessed as increased survival of mouse at 1 mg/kg, ip once daily until day 12; format: functional; settings: route intraperitoneal
Aspergillus fumigatus [5] = test: Antifungal activity against Aspergillus fumigatus isolate Af293 infected in immunosuppressed ICR mouse assessed as median survival time at 1 mg/kg, ip once daily; format: functional; settings: route intraperitoneal
Aspergillus fumigatus [6] = test: Antifungal activity against Aspergillus fumigatus isolate Af293 infected in immunosuppressed ICR mouse assessed as median survival time at 3 mg/kg, ip once daily; format: functional; settings: route intraperitoneal
Aspergillus fumigatus [7] = test: Antifungal activity against Aspergillus fumigatus isolate Af293 infected in immunosuppressed ICR mouse assessed as decrease in invasive lung disease at 6.25 mg/ml twice daily administered 2 days prior to infection via nebulization measured on day 8 by light microscopic analysis; format: functional, organism-based
Aspergillus fumigatus [8] = test: Antifungal activity against Aspergillus fumigatus isolate Af293 infected in immunosuppressed ICR mouse assessed as assessed as decrease in invasive lung disease at 1 mg/kg, ip once daily measured on day 8 by light microscopic analysis; format: functional, organism-based; set-up: dose 1 mg/kg
Aspergillus fumigatus [9] = test: Antifungal activity against Aspergillus fumigatus isolate Af293 infected in immunosuppressed ICR mouse assessed as decreased lung vascular damage at 1 mg/kg, ip once daily measured on day 8 by histopathological analysis; format: functional, organism-based; set-up: dose 1 mg/kg
Aspergillus fumigatus [10] = test: Antifungal activity against Aspergillus fumigatus isolate Af293 infected in immunosuppressed ICR mouse assessed as assessed as decrease in invasive lung disease at 1 mg/kg, ip once daily measured on day 12 by light microscopic analysis; format: functional, organism-based; set-up: dose 1 mg/kg
Aspergillus fumigatus [11] = test: Antifungal activity against Aspergillus fumigatus isolate Af293 infected in immunosuppressed ICR mouse assessed as decreased lung vascular damage at 1 mg/kg, ip once daily measured on day 12 by histopathological analysis; format: functional, organism-based; set-up: dose 1 mg/kg
Mus musculus [12] = test: Toxicity in immunosuppressed ICR mouse assessed as lung injury at 6.25 mg/ml twice daily administered 2 days prior to infection via nebulization; format: organism-based; settings: in vivo, inhaled_or_intranasal, 48 h
Aspergillus fumigatus [13] = test: Antifungal activity against Aspergillus fumigatus isolate Af293 infected in immunosuppressed ICR mouse assessed as pulmonary fungal burden at 6.25 mg/ml twice daily administered 2 days prior to infection via nebulization measured on day 8 by real-time quantitative PCR; format: functional
Aspergillus fumigatus [14] = test: Antifungal activity against Aspergillus fumigatus isolate Af293 infected in immunosuppressed ICR mouse assessed as conidial equivalents per gram of tissue at 6.25 mg/ml twice daily administered 2 days prior to infection via nebulization measured on day 8 by real-time quantitative PCR; format: functional
Aspergillus fumigatus [15] = test: Antifungal activity against Aspergillus fumigatus isolate Af293 infected in immunosuppressed ICR mouse assessed as increased survival of mouse at 6.25 mg/ml twice daily administered 2 days prior to infection via nebulization until day 7 (Rvb= 25%); format: functional
Aspergillus fumigatus [16] = test: Antifungal activity against Aspergillus fumigatus isolate Af293 infected in immunosuppressed ICR mouse assessed as increased survival of mouse at 6.25 mg/ml twice daily administered 2 days prior to infection via nebulization until day 12 (Rvb= 17%); format: functional
Aspergillus fumigatus [17] = test: Antifungal activity against Aspergillus fumigatus isolate Af293 infected in immunosuppressed ICR mouse assessed as median survival time at 6.25 mg/ml twice daily 2 days prior to infection via nebulization; format: functional
Aspergillus fumigatus [18] = test: Antifungal activity against Aspergillus fumigatus isolate Af293 infected in immunosuppressed ICR mouse assessed as decreased lung vascular damage at 6.25 mg/ml twice daily administered 2 days prior to infection via nebulization measured on day 8 by histopathological analysis; format: functional, organism-based
Aspergillus fumigatus [19] = test: Antifungal activity against Aspergillus fumigatus isolate Af293 infected in immunosuppressed ICR mouse assessed as decrease in invasive lung disease at 6.25 mg/ml twice daily administered 2 days prior to infection via nebulization measured on day 12 by light microscopic analysis; format: functional, organism-based
Aspergillus fumigatus [20] = test: Antifungal activity against Aspergillus fumigatus isolate Af293 infected in immunosuppressed ICR mouse assessed as decreased lung vascular damage at 6.25 mg/ml twice daily administered 2 days prior to infection via nebulization measured on day 12 by histopathological analysis; format: functional, organism-based
[21] = Cmax in mouse lung; format: ADME, organism-based
[22] = Cmax in mouse serum; format: ADME, organism-based
Mus musculus [23] = test: Toxicity in immunosuppressed ICR mouse assessed as inflammatory changes at 6.25 mg/ml twice daily administered 2 days prior to infection via nebulization; format: organism-based; settings: in vivo, inhaled_or_intranasal, 48 h

Q: With `C[C@@H]1[C@H](O)[C@@H](C)/C=C/C=C/C=C/C=C/C=C/C=C/C=C/[C@H](O[C@@H]2O[C@H](C)[C@@H](O)[C@H](N)[C@@H]2O)C[C@@H]2O[C@](O)(C[C@@H](O)C[C@@H](O)[C@H](O)CC[C@@H](O)C[C@@H](O)CC(=O)O[C@H]1C)C[C@H](O)[C@H]2C(=O)O` [AMPHOTERICIN B] as the compound, how does the log10cfu (Aspergillus fumigatus [1]) read?
A: 4.33

Q: And the Activity (Aspergillus fumigatus [2])?
A: 5.26

Q: What about the Activity (Aspergillus fumigatus [3]) of the same compound?
A: 31%

Q: What about the Activity (Aspergillus fumigatus [4]) of the same compound?
A: 23%

Q: What about the Time (Aspergillus fumigatus [5]) of the same compound?
A: 7 days

Q: And the Activity (Aspergillus fumigatus [6])?
A: 50%

Q: What about the Activity (Aspergillus fumigatus [7]) of the same compound?
A: Active

Q: And the Activity (Aspergillus fumigatus [8])?
A: inactive

Q: And the Activity (Aspergillus fumigatus [9])?
A: inactive

Q: What about the Activity (Aspergillus fumigatus [10]) of the same compound?
A: inactive

Q: What about the Activity (Aspergillus fumigatus [11]) of the same compound?
A: inactive

Q: For `C[C@@H](c1ncncc1F)[C@](O)(Cn1cncn1)c1ccc(F)cc1F` [VORICONAZOLE], which Activity (Mus musculus [12]) is on record?
A: Non-toxic

Q: What about the log10cfu (Aspergillus fumigatus [13]) of the same compound?
A: 4.21

Q: What about the Activity (Aspergillus fumigatus [14]) of the same compound?
A: 5.24

Q: What about the Activity (Aspergillus fumigatus [15]) of the same compound?
A: 92%

Q: And the Activity (Aspergillus fumigatus [16])?
A: 67%

Q: What about the Time (Aspergillus fumigatus [17]) of the same compound?
A: >12 days

Q: What about the Activity (Aspergillus fumigatus [18]) of the same compound?
A: Active

Q: What about the Activity (Aspergillus fumigatus [19]) of the same compound?
A: Active

Q: And the Activity (Aspergillus fumigatus [20])?
A: Active

Q: And the Cmax [21]?
A: 6730 ng/g

Q: What about the Cmax [22] of the same compound?
A: 2320 ng/mL

Q: And the Activity (Mus musculus [23])?
A: Non-toxic
